The record followed here is patent US20250136594A1 (Tango Therapeutics, Inc., priority 2022, published 2025).

pIC50: −log10 of the molar value. Read-outs that look alike come from different tables or passages of the source.

Experiment [1] has as its system SDMA in HAP1 MTAP-deleted (MTAP-null) cell line (PRMT5 inhibition). Briefly: SDMA in-cell western assay, HAP1 MTAP-deleted cell line. Particulars: for pIC50 / IC90: Homo sapiens; for pIC50: HAP1, read-out: Hap1 MTAP deleted IC50; for IC90: HAP1, read-out: Hap1 MTAP deleted IC90; for Hap1 MTAP intact/deleted ratio: ratio of SDMA IC50 in HAP1 MTAP-intact to HAP1 MTAP-deleted cell line.

Experiment [2] deals with HAP1 MTAP-deleted cell line. Kind of experiment: Viability assay, HAP1 MTAP-deleted cell line. The format is cell-based. To be noted: Homo sapiens.
For experiment [3], the system named is SDMA in HAP1 MTAP-intact cell line (PRMT5 inhibition). Briefly: SDMA in-cell western assay, HAP1 MTAP-intact cell line. Particulars: Homo sapiens, HAP1, read-out: Hap1 MTAP intact IC50.
Where [4] appears, read: viability assay, HAP1 MTAP-deleted cell line, read-out: Hap1 MTAP deleted viability IC50.

`CC(C)c1ccccc1CN(C)C(=O)C(=O)Nc1cnc(N)c2cn[nH]c12` [Compound 183, N-(4-amino-1H-pyrazolo[4,3-c]pyridin-7-yl)-N′-[(2-isopropylphenyl)methyl]-N′-methyl-oxamide]: in experiment [1], the negative-log IC50 (pIC50) was 7.30 to 8.30, the concentration for an effect of 90% (IC90) was over 125 nM and the “Hap1 MTAP intact/deleted ratio” value is “A (IC50 ratio greater than or equal to 30 fold)”. Also, the negative-log IC50 (pIC50) in experiment [2] (setting [4]) was 6.00 to 7.00. In experiment [3], the pIC50 is under 7.30.

As for `Cc1ccccc1CN(CC(C)C)C(=O)C(=O)Nc1cnc(N)c2cn[nH]c12` [Compound 185, N-(4-amino-1H-pyrazolo[4,3-c]pyridin-7-yl)-N′-isobutyl-N′-(o-tolylmethyl)oxamide], in experiment [1], the pIC50 is over 8.30, the IC90 is under 75 nM and the “Hap1 MTAP intact/deleted ratio” value was “A (IC50 ratio greater than or equal to 30 fold)”. For the same compound, the pIC50 in experiment [2] (setting [4]) was over 7.00. Further, the negative logarithm of the IC50 (pIC50) in experiment [3] was under 7.30.

As to `Cc1cc(Cl)ccc1CN(Cc1ccccc1)C(=O)C(=O)Nc1cnc(N)c2cn[nH]c12` [Compound 186, N-(4-amino-1H-pyrazolo[4,3-c]pyridin-7-yl)-N′-benzyl-N′-[(4-chloro-2-methyl-phenyl)methyl]oxamide], in experiment [1], the pIC50 was over 8.30, the IC90 was under 75 nM and the “Hap1 MTAP intact/deleted ratio” value is on record as “B (IC50 ratio greater than or equal to 15 fold but lower than 30 fold)”. Further, in experiment [2] (setting [4]), the negative logarithm of the IC50 (pIC50) is over 7.00. The negative logarithm of the IC50 (pIC50) in experiment [3] was 7.30 to 8.30.

For `C[C@H](c1ccc(C(F)(F)C(F)(F)F)cc1F)N(C)C(=O)C(=O)Nc1cnc(N)c2cn[nH]c12` [Compound 188, N-(4-Amino-1H-pyrazolo[4,3-c]pyridin-7-yl)-N′-methyl-N′—[(1R)-1-[2-fluoro-4-(1,1,2,2,2-pentafluoroethyl)phenyl]ethyl]oxamide], the pIC50 in experiment [1] is over 8.30; in experiment [2] (setting [4]) it was over 7.00; in experiment [3], 7.30 to 8.30. Moreover, the IC90 in experiment [1] is under 75 nM. Also, in experiment [1], the “Hap1 MTAP intact/deleted ratio” value was “B (IC50 ratio greater than or equal to 15 fold but lower than 30 fold)”.

Turning to `CCN(Cc1ccc(C(F)(F)C(F)(F)F)cc1F)C(=O)C(=O)Nc1cnc(N)c2cn[nH]c12` [Compound 189, N-(4-Amino-1H-pyrazolo[4,3-c]pyridin-7-yl)-N′-ethyl-N′-[[2-fluoro-4-(1,1,2,2,2-pentafluoroethyl)phenyl]methyl]oxamide], in experiment [1], the pIC50 was over 8.30, the IC90 was under 75 nM and the “Hap1 MTAP intact/deleted ratio” value is recorded as “B (IC50 ratio greater than or equal to 15 fold but lower than 30 fold)”. In experiment [2] (setting [4]), the negative logarithm of the IC50 (pIC50) was over 7.00. For the same compound, the negative-log IC50 (pIC50) in experiment [3] was under 7.30.

Consider `Cc1ccc(CN(Cc2ccccn2)C(=O)C(=O)Nc2cnc(N)c3cn[nH]c23)cc1` [Compound 190, N-(4-amino-1H-pyrazolo[4,3-c]pyridin-7-yl)-N′-(p-tolylmethyl)-N′-(2-pyridylmethyl)oxamide], for which, in experiment [1], the negative-log IC50 (pIC50) is over 8.30, the IC90 is under 75 nM and the “Hap1 MTAP intact/deleted ratio” value was “A (IC50 ratio greater than or equal to 30 fold)”. In addition, in experiment [2] (setting [4]), the pIC50 is over 7.00. Moreover, in experiment [3], the pIC50 is 7.30 to 8.30.

Take `Cc1cccc(CN(Cc2ccccc2)C(=O)C(=O)Nc2cnc(N)c3cn[nH]c23)n1` [Compound 191, N-(4-amino-1H-pyrazolo[4,3-c]pyridin-7-yl)-N′-benzyl-N′-[(6-methyl-2-pyridyl)methyl]oxamide]: in experiment [1], the negative logarithm of the IC50 (pIC50) is over 8.30, the IC90 was under 75 nM and the “Hap1 MTAP intact/deleted ratio” value is “A (IC50 ratio greater than or equal to 30 fold)”. In addition, the pIC50 in experiment [2] (setting [4]) was over 7.00. In addition, the pIC50 in experiment [3] is 7.30 to 8.30.

As to `CC(c1ccc(C(F)(F)F)cc1)N(C(=O)C(=O)Nc1cnc(N)c2cn[nH]c12)C1CCC1` (stereo not shown) [Compound 192, N-(4-Amino-1H-pyrazolo[4,3-c]pyridin-7-yl)-N′-cyclobutyl-N′-[1-[4-(trifluoromethyl)phenyl]ethyl]oxamide], in experiment [1], the pIC50 was over 8.30, the concentration for an effect of 90% (IC90) was under 75 nM and the “Hap1 MTAP intact/deleted ratio” value is reported as “B (IC50 ratio greater than or equal to 15 fold but lower than 30 fold)”. In experiment [2] (setting [4]), the negative-log IC50 (pIC50) is over 7.00. For the same compound, the negative logarithm of the IC50 (pIC50) in experiment [3] was 7.30 to 8.30.

With `C[C@H](c1ccc(C(F)(F)F)cc1C(F)(F)F)N(C)C(=O)C(=O)Nc1cnc(N)c2cn[nH]c12` [Compound 193, N-(4-Amino-2H-pyrazolo[4,3-c]pyridin-7-yl)-N′-methyl-N′—[(1R)-1-[2,4-bis (trifluoromethyl)phenyl]ethyl]oxamide], the pIC50 in experiment [1] is over 8.30; in experiment [2] (HAP1, read-out: Hap1 MTAP deleted viability IC50), over 7.00; in experiment [3] it was under 7.30. In addition, the 90% effect concentration (IC90) in experiment [1] is under 75 nM.

As to `CCN(Cc1ccc(S(F)(F)(F)(F)F)cc1C)C(=O)C(=O)Nc1cnc(N)c2cn[nH]c12` [Compound 194, N-(4-Amino-1H-pyrazolo[4,3-c]pyridin-7-yl)-N′-ethyl-N′-[[2-methyl-4-(pentafluoro-sulfanyl)phenyl]methyl]oxamide], in experiment [1], the pIC50 is over 8.30, the concentration for an effect of 90% (IC90) was under 75 nM and the “Hap1 MTAP intact/deleted ratio” value is reported as “B (IC50 ratio greater than or equal to 15 fold but lower than 30 fold)”. Besides, the pIC50 in experiment [2] (setting [4]) was over 7.00. Moreover, the pIC50 in experiment [3] was 7.30 to 8.30.

The pIC50 is the IC50 on a negative log10 scale, so that one unit is a factor of ten. The term IC90 denotes the concentration needed for an effect of 90%.
